In ChEMBL document CHEMBL1201862, “PubChem BioAssay data set” (2004):
Calls of active or inactive are those of the source.

What was measured:
[1] = molecular target: T1, RNA-binding protein pos-1 (Caenorhabditis elegans, UniProt G5EF15); assay: inhibitors of POS-1/mex-3 RNA binding, dose response, biochemical, fluorescence polarization (AID 1964);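 note: purified POS-1 fused to maltose binding protein made in E. coli; potency of compounds blocking POS-1 binding to fluorescent RNA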
T1 sequence (G5EF15 whole entry): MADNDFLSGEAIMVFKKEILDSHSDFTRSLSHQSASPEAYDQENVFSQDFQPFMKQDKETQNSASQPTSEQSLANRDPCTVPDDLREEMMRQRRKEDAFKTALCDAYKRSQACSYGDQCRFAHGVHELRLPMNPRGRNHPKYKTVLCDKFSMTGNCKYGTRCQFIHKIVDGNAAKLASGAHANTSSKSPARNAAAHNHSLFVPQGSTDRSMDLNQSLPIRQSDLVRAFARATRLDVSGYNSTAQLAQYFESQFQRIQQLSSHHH

[2] = molecular target: T2, Zinc finger protein mex-5 (Caenorhabditis elegans, UniProt Q9XUB2); assay: MEX-5/TCR-2 RNA interaction inhibitors, dose response, biochemical, C. elegans, fluorescence polarization (AID 1960)
T2 sequence (Q9XUB2 whole entry): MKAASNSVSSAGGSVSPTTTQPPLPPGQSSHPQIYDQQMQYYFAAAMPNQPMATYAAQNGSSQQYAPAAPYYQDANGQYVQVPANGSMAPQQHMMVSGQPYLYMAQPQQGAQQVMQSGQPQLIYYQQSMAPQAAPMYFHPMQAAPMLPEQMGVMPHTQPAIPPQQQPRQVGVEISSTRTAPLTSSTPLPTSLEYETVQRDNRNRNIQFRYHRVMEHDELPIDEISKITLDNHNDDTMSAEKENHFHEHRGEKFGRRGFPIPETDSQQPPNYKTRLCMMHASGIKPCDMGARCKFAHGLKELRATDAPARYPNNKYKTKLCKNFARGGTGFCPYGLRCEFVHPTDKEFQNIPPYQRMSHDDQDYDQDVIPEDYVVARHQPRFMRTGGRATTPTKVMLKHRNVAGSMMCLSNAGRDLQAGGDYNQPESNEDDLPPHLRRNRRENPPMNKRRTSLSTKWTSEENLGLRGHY

[3] = growth suppression of PTEN-null colon cells, dose response, cell-based, HCT116 PTEN knockout (AID 1047); format: functional;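 note: HCT116 colon tumor cells with PTEN knocked out; cells exposed to compound for 60 hours before readout; potency for loss of cell viability measured by luminescence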
[4] = Luminescence Cell-Based Dose Retest to Confirm Inhibitors of Cancer Stem Cells. [Related pubchem assays (depositor defined):AID2717, AID2721]; format: functional; settings: Homo sapiens
INS1 = assay: beta cell apoptosis inhibitors, cytokine rescue, dose response, luminescence, retest (AID 449756); format: functional, cell-based; settings: Rattus norvegicus;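 note: cell death triggered by IL-1 beta plus TNF-alpha plus IFN-gamma mixture; protective hits raise ATP signal compared with cytokine alone wells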
[5] = Shn3 3'UTR reporter inhibitors, dose response, cell-based, Clone20 osteoblasts, firefly luciferase, cherry-picked (AID 624132); format: functional;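 note: firefly luciferase luminescence from reporter carrying the Shn3 3'UTR in osteoblasts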
[6] = control 3'UTR Renilla luciferase suppression, dose response, counter-screen for Shn3 inhibitor project, cell-based, Clone20-Shn3RL, cherry-picked (AID 624133); format: functional
[7] = growth suppression of beta-catenin-knockout colon cells, dose response, cell-based, HCT116, human colon tumor (AID 1045); format: functional;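 note: HCT116 colon tumor cells with beta catenin knocked out; cells exposed to compound for 60 hours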
Paired box protein Pax-8 = Paired box protein Pax-8 (Homo sapiens, UniProt Q06710); assay: inhibitors of PAX8-driven TPO luciferase reporter, dose response, RMG-I cells, cherry-pick (AID 687027); format: functional, cell-based;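 note: luciferase reporter driven by Pax8 target thyroperoxidase promoter measured by SteadyGlo luminescence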
[8] = HepG2 cell cytotoxicity, dose response, cytotoxicity control for Shn3 inhibitor project, CellTiter-Glo, cherry-picked (AID 624134); format: functional, cell-based
HEK293 = assay: inhibitors of LMP1-driven NF-kB reporter, dose response, cell-based, HEK293, luciferase, cherry-pick (AID 588343); format: functional; settings: Homo sapiens
[9] = molecular target: T3, Heat shock factor protein 1 (Mus musculus, UniProt P38532); assay: inhibition of MG132-induced HSE-luciferase signal, confirmation, cell-based, NIH3T3, luminescence, dose retest (AID 2382); format: functional;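 note: NIH3T3 fibroblasts with HSF1-driven luciferase reporter stressed by proteasome inhibitor MG132; luminescence from HSF1-driven luciferase expression after 8 hours of MG132 stress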
T3 sequence (P38532 whole entry): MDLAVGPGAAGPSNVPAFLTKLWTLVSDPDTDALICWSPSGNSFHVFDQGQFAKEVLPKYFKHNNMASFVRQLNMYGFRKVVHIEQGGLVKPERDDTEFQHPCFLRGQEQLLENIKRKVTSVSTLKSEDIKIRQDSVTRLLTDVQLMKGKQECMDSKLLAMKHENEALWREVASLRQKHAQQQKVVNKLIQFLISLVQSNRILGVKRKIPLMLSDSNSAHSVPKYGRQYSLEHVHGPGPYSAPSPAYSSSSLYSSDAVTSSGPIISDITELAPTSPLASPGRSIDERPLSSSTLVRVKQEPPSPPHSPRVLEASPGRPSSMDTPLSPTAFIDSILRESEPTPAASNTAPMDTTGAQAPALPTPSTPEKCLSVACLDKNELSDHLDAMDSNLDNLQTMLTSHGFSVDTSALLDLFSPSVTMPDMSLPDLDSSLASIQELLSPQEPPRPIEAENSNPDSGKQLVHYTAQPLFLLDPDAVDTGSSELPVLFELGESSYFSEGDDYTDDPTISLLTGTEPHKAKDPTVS

Cytochrome P450 3A4 = Cytochrome P450 3A4 (Homo sapiens, UniProt P08684); settings: Potency;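 note: confirmatory qHTS run detecting inhibitors and substrates of CYP3A4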
cells [10] = format: functional, cell-based
Nonstructural protein 1 = Nonstructural protein 1 (Influenza A virus, UniProt Q194T2); format: functional, Influenza A virus (A/California/07/2009(H1N1))
cells [11] = format: functional, cell-based; remark: listed apart in the source
[12] = molecular target: Luciferin 4-monooxygenase (Photinus pyralis, UniProt P08659); assay: firefly luciferase enzyme inhibitors, dose response, biochemical, luminescence (AID 1891)
[13] = Luminescence Cell-Based Dose Confirmation HTS to Identify Inhibitors of Platelet Dense Granule Release. [Related pubchem assays: 1663 (Primary HTS), 1678 (Summary of Project)]; format: functional

Sequence of Nonstructural protein 1 (Q194T2 whole entry): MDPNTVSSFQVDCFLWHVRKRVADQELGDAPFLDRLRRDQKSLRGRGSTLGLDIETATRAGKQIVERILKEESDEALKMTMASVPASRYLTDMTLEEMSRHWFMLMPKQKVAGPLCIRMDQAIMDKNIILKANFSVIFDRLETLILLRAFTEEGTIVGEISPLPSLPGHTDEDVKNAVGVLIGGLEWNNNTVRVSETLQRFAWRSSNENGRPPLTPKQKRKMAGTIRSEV
Sequence of Cytochrome P450 3A4 (P08684 whole entry): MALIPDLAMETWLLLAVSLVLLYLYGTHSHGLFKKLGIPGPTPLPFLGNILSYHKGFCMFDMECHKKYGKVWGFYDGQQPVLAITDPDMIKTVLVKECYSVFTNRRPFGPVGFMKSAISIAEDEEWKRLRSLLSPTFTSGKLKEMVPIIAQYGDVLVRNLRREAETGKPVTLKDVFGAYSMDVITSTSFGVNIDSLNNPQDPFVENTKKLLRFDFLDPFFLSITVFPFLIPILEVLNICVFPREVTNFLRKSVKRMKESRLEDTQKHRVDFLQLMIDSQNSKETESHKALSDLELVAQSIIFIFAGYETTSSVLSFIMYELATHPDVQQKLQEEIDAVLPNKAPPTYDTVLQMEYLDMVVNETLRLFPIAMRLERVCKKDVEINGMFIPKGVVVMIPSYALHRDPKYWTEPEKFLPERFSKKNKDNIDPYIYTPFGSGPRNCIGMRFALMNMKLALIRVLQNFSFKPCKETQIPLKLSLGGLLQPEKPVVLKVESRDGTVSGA
Sequence of Paired box protein Pax-8 (Q06710 whole entry): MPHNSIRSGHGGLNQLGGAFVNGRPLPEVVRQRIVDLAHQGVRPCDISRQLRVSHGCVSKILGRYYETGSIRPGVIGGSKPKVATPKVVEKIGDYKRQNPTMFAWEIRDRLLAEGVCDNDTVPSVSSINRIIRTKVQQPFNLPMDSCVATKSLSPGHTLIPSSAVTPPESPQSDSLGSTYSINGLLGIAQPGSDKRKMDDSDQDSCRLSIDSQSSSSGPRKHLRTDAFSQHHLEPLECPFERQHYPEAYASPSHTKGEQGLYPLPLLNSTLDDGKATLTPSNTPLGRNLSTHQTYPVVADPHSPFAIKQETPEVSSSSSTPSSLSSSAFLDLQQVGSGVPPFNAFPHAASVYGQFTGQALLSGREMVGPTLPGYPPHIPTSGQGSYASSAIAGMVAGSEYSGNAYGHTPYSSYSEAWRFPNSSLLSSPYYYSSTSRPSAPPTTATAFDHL
Sequence of Luciferin 4-monooxygenase (P08659 whole entry): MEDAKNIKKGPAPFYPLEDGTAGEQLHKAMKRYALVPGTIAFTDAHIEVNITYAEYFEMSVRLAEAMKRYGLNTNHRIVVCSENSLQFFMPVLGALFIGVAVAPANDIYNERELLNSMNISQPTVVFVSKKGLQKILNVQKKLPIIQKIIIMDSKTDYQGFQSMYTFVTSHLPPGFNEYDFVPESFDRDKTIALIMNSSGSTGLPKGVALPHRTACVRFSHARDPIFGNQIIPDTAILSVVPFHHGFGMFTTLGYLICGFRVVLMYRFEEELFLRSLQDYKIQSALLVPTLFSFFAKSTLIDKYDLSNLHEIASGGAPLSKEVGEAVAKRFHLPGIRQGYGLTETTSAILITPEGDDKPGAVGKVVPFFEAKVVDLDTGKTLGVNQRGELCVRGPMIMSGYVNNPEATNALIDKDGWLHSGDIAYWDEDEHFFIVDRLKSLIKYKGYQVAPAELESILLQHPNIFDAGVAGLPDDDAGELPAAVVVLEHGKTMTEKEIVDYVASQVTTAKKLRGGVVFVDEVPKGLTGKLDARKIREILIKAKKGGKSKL

SMILES: Cc1ccc(S(=O)(=O)NNc2nc3ccccc3nc2C(F)(F)F)cc1
- EC50 [1]: 39.8 µM (active)
- EC50 [2]: 21.5 µM (inconclusive)

SMILES: O=C(Nc1cccc(C(F)(F)F)c1)Nc1ccc(N2CCCC2)c(S(=O)(=O)Nc2ccccc2Cl)c1
- EC50 [3]: 3.89 µM (active)
- AC50 [4]: 0.848 µM (active)
- AC50 (INS1): 3.57 µM (active)
- AC50 [5]: 4.42 µM (active)
- AC50 [6]: 5.49 µM (active)
- EC50 [7]: 4.39 µM (active)
- AC50 (Paired box protein Pax-8): 6.41 µM (active)
- AC50 [8]: 5.53 µM (active)

SMILES: O=C(NCCc1ccccc1)c1ccccc1Cl
- AC50 (HEK293): 3.98 µM (active)

SMILES: COc1ccc(C(=O)NNC(=O)c2cnccn2)cc1[N+](=O)[O-]
- EC50 [1]: 25.3 µM (active)
- EC50 [9]: > 195 µM (not active)
- EC50 [2]: 1.72 µM (active)

SMILES: CCOc1ccc(OCc2cccc(C(=O)N3CCCCCC3)c2)cc1
- AC50 (HEK293): 4.36 µM (active)

SMILES: COC(=O)[C@]1(C)CC[C@@]2(C)CC[C@@]3(C)C4=CCc5c(cc(O)c(O)c5C)[C@]4(C)CC[C@@]3(C)C2C1 (stereo partly specified)
- AC50 (Cytochrome P450 3A4): 39.8 µM (inconclusive)

SMILES: CCCCNC(=O)C(c1ccc(OCC(=O)OC)c(C(=O)OC)c1)N(CCC1=CCCCC1)C(=O)CCCCCN1C(=O)NC(c2ccc(-c3ccccc3)cc2)C(C(=O)OCc2ccccc2)=C1C (stereo unspecified)
- AC50 (Cytochrome P450 3A4): 2.51 µM (inconclusive)

SMILES: CC1(OC(=O)CCc2ccccc2)C(=O)C=C2C=C(c3ccsc3)OC=C2C1=O (stereo unspecified)
- EC50 [1]: 49.7 µM (active)
- EC50 [2]: 28.2 µM (active)

SMILES: O=C(COc1ccc(Br)cc1)N1CCN(Cc2c[nH]c3ccccc23)CC1
- AC50 (INS1): 3.34 µM (active)

SMILES: O=C(N/N=C/c1c(O)ccc2ccccc12)c1ccc(CO)nc1
- EC50 (cells [10]): 10.8 µM (active)
- IC50 (Nonstructural protein 1): 10.6 µM (active)
- EC50 (cells [11]): > 350 µM (not active)

SMILES: O=C(CN1CC(=O)Oc2ccccc21)OCC(=O)c1ccccc1
- IC50 (Nonstructural protein 1): 1.47 µM (active)

SMILES: O=C1N=C(Nc2ccccc2Cl)S/C1=C\c1cc([N+](=O)[O-])ccc1O
- EC50 [1]: 10.9 µM (active)
- EC50 [2]: > 300 µM (not active)

SMILES: COc1cccc(/C=N/NC(=O)CN2CC(c3ccccc3)CC2=O)c1O (stereo unspecified)
- AC50 (INS1): 6.51 µM (active)

SMILES: CCOC(=O)C1Nc2c(F)cc(C)cc2C2C=CCC12 (stereo unspecified)
- EC50 [1]: > 300 µM (not active)
- EC50 [2]: > 300 µM (not active)

SMILES: O=c1oc2ccccc2c(O)c1/C=N/c1ccccn1
- AC50 (HEK293): 162 µM (active)
- EC50 [12]: > 112 µM (not active)
- EC50 [13]: > 112 µM (not active)

SMILES: CC1CC2C3CCC4=CC(=O)C=C[C@@]4(C)[C@]3(F)C(O)C[C@]2(C)[C@]1(O)C(=O)COP(=O)(O)O (stereo partly specified)
- AC50 (Cytochrome P450 3A4): 39.8 µM (inconclusive)

SMILES: O=C(CSc1nc2ccccc2c(=O)n1CCCN1CCOCC1)Nc1ccc(Br)cc1
- AC50 (HEK293): > 350 µM (inactive)

SMILES: CCOC(=O)COn1c(=O)c(-c2cc3ccccc3o2)[n+]([O-])c2ccccc21
- EC50 [1]: > 300 µM (not active)
- EC50 [2]: 27.6 µM (active)

SMILES: Cc1ccc2oc(=O)c3c4cc(O)c(O)c(C)c4oc3c2c1
- AC50 (Cytochrome P450 3A4): 12.6 µM (inconclusive)

SMILES: Cc1cccn2c(=O)c(/C=C(\C#N)C(N)=O)c(N3CCN(c4cccc(Cl)c4)CC3)nc12
- IC50 (Nonstructural protein 1): > 100 µM (active)

SMILES: N#Cc1ccc(C23CC4(C2)[C@H](CN(Cc2ccc(-c5ccccc5)cc2)[C@@H]4c2ccccc2)C3c2ccccc2)cc1 (stereo partly specified)
- AC50 (Cytochrome P450 3A4): 15.8 µM (inconclusive)

SMILES: COc1cccc(/C=N/Nc2ncnc(N)c2[N+](=O)[O-])c1OC
- AC50 (HEK293): 3.91 µM (active)
- EC50 [1]: 18.4 µM (active)
- EC50 [2]: > 300 µM (inconclusive)

SMILES: COc1ccc(C2C(C#N)=C(/N=C/N3CCN(C)CC3)OC3=C2C(=O)CC(C)(C)C3)cc1OC (stereo unspecified)
- EC50 [1]: > 300 µM (not active)
- EC50 [2]: > 300 µM (not active)

SMILES: COc1cccc(C=NNC(=O)C[n+]2ccccc2)c1O
- IC50 (Nonstructural protein 1): 10.4 µM (active)

SMILES: CN(C)c1ccc(C=C2C=CC=C2)cc1
- IC50 (Nonstructural protein 1): 31.5 µM (active)
